Experimental data: the supplement of paper PMC4380931
± gives the standard deviation of the averaged measurements.

Experiments:
Test in all cases: apoptotic fraction of cells (caspase-3 NucView488 positive); higher = more apoptosis
WM1552C = tested on: WM1552C
Experimental: (§1)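 BRAF V600E/D melanoma cell lines were seeded in 96-well plates, treated in 4 replicates with seven doses (3.16 nM to 3.16 uM) of RAF/MEK inhibitors for 24, 48 or 72 h, and stained with Hoechst 33342 (nuclei) and DEVD-NucView488 caspase-3 substrate. Plates were imaged on an Operetta. Relative viability is the cell count normalised to a DMSO-treated control; apoptosis fraction is the fraction of NucView488-positive nuclei.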

C32 = tested on: C32
Experimental: as §1

WM115 = tested on: WM115
Experimental: as §1

MZ7MEL = tested on: MZ7MEL
Experimental: as §1

LOXIMVI = tested on: LOXIMVI
Experimental: as §1

CN(C)CCOc1ccc(-c2nc(-c3ccncc3)c(-c3ccc4c(c3)CC/C4=N\O)[nH]2)cc1
apoptotic fraction of cells
Conditions | 0.00316 µM | 0.01 µM | 0.0316 µM | 0.1 µM | 0.316 µM | 1 µM | 3.16 µM
C32, 24 h | 0.0901 ± 0.021 | 0.138 ± 0.019 | 0.159 ± 0.036 | 0.194 ± 0.016 | 0.225 ± 0.022 | 0.24 ± 0.016 | 0.271 ± 0.0045
C32, 48 h | 0.0832 ± 0.026 | 0.121 ± 0.015 | 0.0893 ± 0.019 | 0.077 ± 0.0098 | 0.189 ± 0.015 | 0.38 ± 0.018 | 0.524 ± 0.021
C32, 72 h | 0.0657 ± 0.019 | 0.0532 ± 0.014 | 0.0299 ± 0.004 | 0.0807 ± 0.013 | 0.274 ± 0.017 | 0.474 ± 0.021 | 0.542 ± 0.043
LOXIMVI, 24 h | 0.0512 ± 0.005 | 0.0389 ± 0.014 | 0.0361 ± 0.0083 | 0.0658 ± 0.0071 | 0.0417 ± 0.012 | 0.0511 ± 0.014 | 0.0461 ± 0.012
LOXIMVI, 48 h | 0.143 ± 0.086 | 0.0806 ± 0.015 | 0.0671 ± 0.013 | 0.0471 ± 0.0067 | 0.0374 ± 0.0078 | 0.0404 ± 0.0046 | 0.0453 ± 0.0041
LOXIMVI, 72 h | 0.253 ± 0.074 | 0.188 ± 0.043 | 0.135 ± 0.025 | 0.0607 ± 0.013 | 0.0478 ± 0.018 | 0.0458 ± 0.0047 | 0.0628 ± 0.0058
MZ7MEL, 24 h | 0.0126 ± 0.0024 | 0.0117 ± 0.0056 | 0.0102 ± 0.0055 | 0.0118 ± 0.0058 | 0.0151 ± 0.0018 | 0.0236 ± 0.0062 | 0.0357 ± 0.0065
MZ7MEL, 48 h | 0.0138 ± 0.0015 | 0.019 ± 0.0044 | 0.0145 ± 0.0061 | 0.0141 ± 0.0027 | 0.0253 ± 0.0069 | 0.0408 ± 0.0078 | 0.0727 ± 0.015
MZ7MEL, 72 h | 0.017 ± 0.0043 | 0.0127 ± 0.0036 | 0.0173 ± 0.0057 | 0.0271 ± 0.0072 | 0.0568 ± 0.0073 | 0.0967 ± 0.016 | 0.143 ± 0.0086
WM115, 24 h | 0.0434 ± 0.0055 | 0.0337 ± 0.0014 | 0.0512 ± 0.018 | 0.0473 ± 0.0081 | 0.0461 ± 0.0076 | 0.0874 ± 0.021 | 0.0958 ± 0.03
WM115, 48 h | 0.047 ± 0.0077 | 0.0376 ± 0.0068 | 0.0402 ± 0.0084 | 0.0491 ± 0.007 | 0.0688 ± 0.017 | 0.101 ± 0.023 | 0.131 ± 0.019
WM115, 72 h | 0.0298 ± 0.0018 | 0.031 ± 0.0045 | 0.0346 ± 0.0014 | 0.0452 ± 0.0079 | 0.0689 ± 0.016 | 0.144 ± 0.018 | 0.158 ± 0.015
WM1552C, 24 h | 0.059 ± 0.013 | 0.05804 ± 0.00024 | 0.0561 ± 0.01 | 0.0693 ± 0.0014 | 0.0643 ± 0.0076 | 0.0626 ± 0.0028 | 0.0608 ± 0.008
WM1552C, 48 h | 0.075 ± 0.0069 | 0.0725 ± 0.012 | 0.0713 ± 0.016 | 0.067 ± 0.013 | 0.0576 ± 0.0032 | 0.0631 ± 0.012 | 0.0655 ± 0.017
WM1552C, 72 h | 0.0862 ± 0.0034 | 0.0741 ± 0.0093 | 0.0679 ± 0.0047 | 0.0654 ± 0.0012 | 0.0685 ± 0.0037 | 0.0776 ± 0.0066 | 0.113 ± 0.014

Cc1ccc(NC(=O)c2cccc(C(C)(C)C#N)c2)cc1Nc1ccc2ncn(C)c(=O)c2c1 [AZ628]
apoptotic fraction of cells
Conditions | 0.00316 µM | 0.01 µM | 0.0316 µM | 0.1 µM | 0.316 µM | 1 µM | 3.16 µM
C32, 24 h | 0.0886 ± 0.003 | 0.128 ± 0.017 | 0.177 ± 0.042 | 0.226 ± 0.023 | 0.28 ± 0.018 | 0.338 ± 0.034 | 0.24 ± 0.017
C32, 48 h | 0.0865 ± 0.014 | 0.103 ± 0.017 | 0.0851 ± 0.017 | 0.213 ± 0.017 | 0.509 ± 0.052 | 0.847 ± 0.011 | 0.9051 ± 0.0087
C32, 72 h | 0.0829 ± 0.007 | 0.0581 ± 0.01 | 0.0379 ± 0.0014 | 0.301 ± 0.017 | 0.676 ± 0.038 | 0.886 ± 0.026 | 0.941 ± 0.012
LOXIMVI, 24 h | 0.0535 ± 0.01 | 0.0347 ± 0.014 | 0.0365 ± 0.0069 | 0.0586 ± 0.0053 | 0.0296 ± 0.0061 | 0.0677 ± 0.017 | 0.0554 ± 0.0088
LOXIMVI, 48 h | 0.0814 ± 0.011 | 0.0536 ± 0.012 | 0.0416 ± 0.0049 | 0.0479 ± 0.0027 | 0.063 ± 0.0059 | 0.118 ± 0.0058 | 0.163 ± 0.0068
LOXIMVI, 72 h | 0.139 ± 0.018 | 0.104 ± 0.064 | 0.0405 ± 0.004 | 0.0836 ± 0.013 | 0.117 ± 0.0087 | 0.211 ± 0.0098 | 0.497 ± 0.048
MZ7MEL, 24 h | 0.0132 ± 0.006 | 0.0129 ± 0.0019 | 0.0104 ± 0.0083 | 0.00814 ± 0.0047 | 0.0204 ± 0.0053 | 0.032 ± 0.015 | 0.0453 ± 0.0093
MZ7MEL, 48 h | 0.0137 ± 0.0038 | 0.0171 ± 0.0039 | 0.0173 ± 0.00068 | 0.0263 ± 0.006 | 0.0421 ± 0.0069 | 0.0561 ± 0.0057 | 0.0749 ± 0.0098
MZ7MEL, 72 h | 0.0208 ± 0.0082 | 0.0145 ± 0.0031 | 0.0428 ± 0.01 | 0.156 ± 0.011 | 0.236 ± 0.026 | 0.265 ± 0.026 | 0.293 ± 0.012
WM115, 24 h | 0.0464 ± 0.011 | 0.0415 ± 0.0061 | 0.0535 ± 0.0073 | 0.0496 ± 0.013 | 0.0725 ± 0.023 | 0.135 ± 0.023 | 0.202 ± 0.1
WM115, 48 h | 0.0302 ± 0.0073 | 0.0498 ± 0.014 | 0.0357 ± 0.0068 | 0.0517 ± 0.007 | 0.139 ± 0.063 | 0.311 ± 0.039 | 0.379 ± 0.043
WM115, 72 h | 0.0295 ± 0.0037 | 0.0285 ± 0.0053 | 0.0418 ± 0.0034 | 0.159 ± 0.039 | 0.419 ± 0.052 | 0.644 ± 0.092 | 0.82 ± 0.04
WM1552C, 24 h | 0.0672 ± 0.0095 | 0.0724 ± 0.0046 | 0.0622 ± 0.0018 | 0.0716 ± 0.0026 | 0.0799 ± 0.0038 | 0.0776 ± 0.006 | 0.104 ± 0.018
WM1552C, 48 h | 0.0725 ± 0.013 | 0.0688 ± 0.012 | 0.0702 ± 0.021 | 0.0329 ± 0.014 | 0.0464 ± 0.022 | 0.0857 ± 0.02 | 0.108 ± 0.032
WM1552C, 72 h | 0.0855 ± 0.004 | 0.0732 ± 0.0055 | 0.0827 ± 0.026 | 0.0883 ± 0.0036 | 0.134 ± 0.0099 | 0.153 ± 0.0054 | 0.172 ± 0.0067
